US10407388B2, “Thiourea derivatives as activators of RORα and pharmaceutical composition containing same” (SEOUL NATIONAL UNIVERSITY R & DB FOUNDATION, priority 2011, dated 2019)

Experiments:
FAS [1] = experiment: Expression of FAS protein in HepG2 cells, western blotting; assay type: cell-based, human; settings: for expression of FAS, which had been increased by T17: 0, 1, 10, 50, 100 μM with 1 μM T17, 24 hours, FIGS. 6b and 6c; for expression of FAS protein: 100 μM, 24 hours, FIG. 6a
Description: HepG2 cells (1×10^6 cells/well) were seeded on a 60-dish and cultured overnight in a DMEM containing 10% FBS. The HepG2 cells were maintained at 37° C. in a humidification thermostat containing 5% CO2 and 95% air. After culturing, the HepG2 cells were treated with each of the JC1-38, JC1-40, and JC1-42 compounds at a concentration of 100 μM, and, as a positive control, the HepG2 cells were treated with 2 mM metformin, which is an AMPK activator, for 24 hours. After treatment, the expression of proteins was analyzed by western blotting analysis. That is, after treatment, the HepG2 cells were destroyed on ice in a lysis buffer containing 50 mM NaCl, 50 mM Tris pH 7.4, 5 mM EDTA, 1% NP-40, and a protease inhibitor for 30 minutes, and then centrifuged to obtain a total cell lysate. 20 μg to 30 μg of proteins collected from the total cell lysate was subjected to 7% to 9% sodium dodecyl sulfate-polyacrylamide gel electrophoresis (SDS-PAGE), and was transferred to a polyvinylidene difluoride membrane (Millipore, Bedford, Mass., USA). The resulting product was subjected to blocking with 5% or 10% (w/v) nonfat dry milk in PBS containing 0.1% Tween-20, and was reacted with antibodies specific to RORα (Affinity BioReagents), LXRα, SREBP-1, FAS (Santa Cruz Biotechnology), phospho-ACC (Cell signaling), and α-tubulin (Calbiochem). Immunoreactive proteins were detected with Amersham ECL western blotting detection reagents using a horseradish peroxidase (HRP)-conjugated secondary antibody (Zymed Lab). Protein concentrations were quantified by bicinchoninic acid (BCA) (Pierce) analysis, and the expression of α-tubulin was monitored as a control. The results thereof are illustrated in FIG. 6a.
In addition, HepG2 cells were cultured under the same conditions, and then the HepG2 cells were treated with particular concentrations (0 μM, 1 μM, 10 μM, 50 μM, and 100 μM) of JC1-40 (or JC1-42) and 1 μM T17 for 24 hours. After treatment, the expression of proteins was analyzed by western blotting analysis, and the expression of α-tubulin was monitored as a control. The results thereof are illustrated in FIGS. 6b and 6c.

LXRα = experiment: Expression of LXRα protein in liver of mice with high-fat diet-induced fatty liver, western blotting; assay type: in vivo; settings: oral, 10 mg/kg/day or 30 mg/kg/day for 2 days; liver tissue; FIG. 11b
Description: (§1) 3 days after the diet was fed, the mice were fed the high-fat diet containing safflower oil while being orally administered JC1-40 and JC1-42, which had been diluted with 0.5% carboxymethyl cellulose, at a dose of 10 mg/kg/day or 30 mg/kg/day for 2 days. 5 days after the diet was fed, the mice were sacrificed to extract liver tissues therefrom, and the expression of proteins was analyzed by western blotting analysis. That is, after treatment, each liver tissue was homogenized in a lysis buffer containing 50 mM NaCl, 50 mM Tris pH 7.4, 5 mM EDTA, 1% NP-40, and a protease inhibitor, and then centrifuged to obtain a total cell lysate. 20 μg to 30 μg of proteins collected from the total cell lysate was subjected to 7% to 9% SDS-PAGE, and was transferred to a polyvinylidene difluoride membrane (Millipore, Bedford, Mass., USA). […] Immunoreactive proteins were detected with Amersham ECL western blotting detection reagents using an HRP-conjugated secondary antibody (Zymed Lab). Protein concentrations were quantified by BCA (Pierce) analysis, and the expression of α-tubulin was monitored as a control. […]

FAS [2] = experiment: Expression of FAS protein in liver of mice with high-fat diet-induced fatty liver, western blotting; assay type: in vivo; settings: oral, 10 mg/kg/day or 30 mg/kg/day for 2 days; liver tissue; FIG. 11b
Description: as §1

[3] = tested on: white mice, common carotid artery damaged by balloon catheter; experiment: Inner vascular proliferation after balloon dilatation; assay type: in vivo; settings: oral, 5 mg/kg, 14 days after balloon dilatation; H&E staining; FIG. 15
Description: To verify the inhibition of angiostenosis by JC1-40, white mice were administered JC1-40 for […], followed by balloon dilatation and subsequent additional administration of JC1-40 for 14 days. An experimental group was orally administered JC1-40 at a dose of 5 mg/kg (in 0.5% carboxymethyl cellulose, 2 ml/kg) (n=5), and a control was orally administered 0.5% carboxymethlycellulose at a dose of […] (n=5). The balloon dilatation was performed as follows. The cervical portion of each with mouse was incised to expose a common carotid artery, and the internal branch was tied at a site where the common carotid artery branches into the external branch and the internal branch. The external branch was partially incised, and then ballooning was performed three times with a 2F Fogarty balloon catheter to damage blood vessels. Subsequently, the balloon catheter was removed, and the incision site was tied. After balloon dilatation, the white mice were administered the drug for 14 days and then sacrificed to cut the site in artery that included the damaged region. The obtained blood vessels of each of the JC1-40 experimental group and the control were sectioned, the inner vascular layer thereof was subjected to Hematoxylin and Eosin (H&E) staining, and then the effect of JC1-40 on the inhibition of inner vascular proliferation was examined, and the results thereof are illustrated in FIG. 15. […]

[4] = tested on: alcoholic fatty liver mice model; experiment: Alcoholic fatty liver mice model (Lieber-DeCarli liquid diet); assay type: in vivo, mice (C57BL/6); settings: oral, 10 mg/kg body weight once a day for 2 weeks
Description: Eight-week-old black male laboratory mice (C57BL/6) were divided into: 1) control (n=8); 2) JC1-40-administered control (n=8); 3) alcohol group (n=12); and 4) JC1-40-administered alcohol group (n=12), and fed a Lieber-DeCarli liquid diet (Dyets Inc, Bethlehem, Pa., USA). The Lieber-DeCarli liquid diet in the form of powder was purchased, and then water was added thereto every morning to form a liquid-type feed such that 1 ml of the feed contained 1 kcal. The alcohol group was fed a gradually increasing amount of alcohol with an increment of 0.5% during a 2-week adaptation period, and then was fed a feed containing 5% alcohol for 5 weeks. The feed of the control included maltose dextrin instead of alcohol, and for pair-feeding, the feed included maltose dextrin in an amount providing the same calories as the calories that the amount of the feed fed to the mice of the alcohol group contained. During the 5-week ingestion of 5% alcohol, JC1-40 diluted with 0.5% carboxymethyl cellulose was orally administered once a day at a dose of 10 mg/kg body weight for 2 weeks prior to sacrificing the mice. After the 5-week alcohol feeding period was completed, the mice were fasted for 12 hours, and anesthetized to incise the abdomen, and blood and liver were removed from each mouse.

Structure (SMILES) | expression of FAS, which had been increased by T17 (FAS [1]) | expression of FAS protein (FAS [1]) | expression of LXRα protein, which had been increased by the high-fat diet (LXRα) | expression of FAS protein, which had been increased by the high-fat diet (FAS [2]) | proliferation of the inner vascular layer by balloon dilatation [3] | GOT in plasma ([4]; alcohol group, FIG. 16a) | GPT in plasma ([4]; alcohol group, FIG. 16a) | level of blood triglycerides ([4]; alcohol group, FIG. 16b) | weight percentage of liver in body ([4]; alcohol group, FIG. 16d) | accumulation of alcohol-induced lipid vesicles (Hematoxyllin & Eosin) ([4]; liver tissue)
CNC(=S)NCc1ccc(Oc2ccccc2)cc1 [Compound 42, 1-(4-phenoxy-benzyl)-3-methyl-thiourea] | decreased in a manner dependent on the concentration | decreased | decreased | decreased | – | – | – | – | – | –
CNC(=S)NCc1ccc(OCc2ccccc2)cc1 [Compound 40, 1-(4-benzyloxy-benzyl)-3-methyl-thiourea] | decreased in a manner dependent on the concentration | decreased | decreased | decreased | inhibited | decreases in GPT and GOT to levels of the control | decreases in GPT and GOT to levels of the control | significantly decreased | decreased with high significance | significantly reduced
